From PMC4230943, “Mimicking Hypoxia to Treat Anemia: HIF-Stabilizer BAY 85-3934 (Molidustat) Stimulates Erythropoietin Production without Hypertensive Effects” (PLoS ONE, 2014)
pIC50: −log10 of the molar value.

Assays:
PHD3 = molecular target: T1, PHD3 (Homo sapiens, UniProt Q9H6Z9); test: Prolyl hydroxylase assay (Eu-VBC binding to hydroxylated HIF-1α 556–574 peptide); assay type: biochemical; details: 20 µM 2-oxoglutarate, 10 µM Fe2+, 2 mM ascorbate
T1 construct: made in house; host or cells: Sf9 insect cells (baculovirus, pBacPAC transfer vectors)
T1 sequence (Q9H6Z9 whole entry): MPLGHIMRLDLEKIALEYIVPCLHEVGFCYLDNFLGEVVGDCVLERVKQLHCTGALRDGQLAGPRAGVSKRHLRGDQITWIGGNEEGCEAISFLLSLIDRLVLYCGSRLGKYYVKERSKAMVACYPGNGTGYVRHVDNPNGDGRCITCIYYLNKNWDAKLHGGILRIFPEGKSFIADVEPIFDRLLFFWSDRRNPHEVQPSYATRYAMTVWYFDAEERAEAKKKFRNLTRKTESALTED
Description: (§1) Recombinant human HIF-PHs were purified from Sf9 insect cell lysates. After infection with the recombinant virus stocks, generated via cloning of the respective cDNAs into pBacPAC transfer vectors (Clontech Laboratories), Sf9 cells were incubated for 48 h at 27°C with continuous shaking. Expression of the recombinant protein was confirmed by SDS-PAGE and western blot analysis of the expressed proteins. The lysate was centrifuged at 75,000 g at 4°C for 30 min and the supernatant containing the soluble HIF-PHs was incubated for 1 h at 2–8°C with CM Sepharose. After several wash steps, bound proteins were eluted from Sepharose using a linear NaCl gradient. […]
(§2) Hydroxylated biotinyl-HIF-1α 556–574 was incubated with Eu-VBC in 100 µl binding buffer (50 mM Tris [pH 7.5], 120 mM NaCl) for 60 min at room temperature. After washing six times with DELFIA wash buffer (PerkinElmer) and adding 100 µl enhancer solution (PerkinElmer), the amount of bound VBC was determined by measuring time-resolved fluorescence with a Tecan infinite M200 plate reader. Measurements were taken in triplicate or more, and results were expressed as means ± SEM. IC50 values were determined after curve fitting using GraphPad Prism software (GraphPad Software, La Jolla, CA, USA) applying the four-parameter logistic equation to the data sets. […]

PHD1 = molecular target: T2, PHD1 (Homo sapiens, UniProt Q96KS0); test: as above; assay type: biochemical; details: 20 µM 2-oxoglutarate, 10 µM Fe2+, 2 mM ascorbate
T2 construct: made in house; host or cells: Sf9 insect cells (baculovirus, pBacPAC transfer vectors)
T2 sequence (Q96KS0 whole entry): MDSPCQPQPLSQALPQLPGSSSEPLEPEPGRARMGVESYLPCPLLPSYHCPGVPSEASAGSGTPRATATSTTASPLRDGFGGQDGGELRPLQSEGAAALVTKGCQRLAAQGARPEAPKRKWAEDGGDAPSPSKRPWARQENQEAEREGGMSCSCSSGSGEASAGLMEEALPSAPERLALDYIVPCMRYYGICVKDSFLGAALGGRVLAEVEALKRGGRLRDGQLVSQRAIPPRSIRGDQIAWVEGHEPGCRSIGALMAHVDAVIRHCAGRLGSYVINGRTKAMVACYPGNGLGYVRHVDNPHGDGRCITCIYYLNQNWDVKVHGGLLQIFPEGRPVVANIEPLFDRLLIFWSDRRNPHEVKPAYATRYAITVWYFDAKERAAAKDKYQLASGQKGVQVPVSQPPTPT
Description: as §1, §2

cynomolgus monkeys = test: 5-day repeat-dose study of plasma EPO response; assay type: in vivo, cynomolgus monkey
Description: Male and female cynomolgus monkeys (2.8–5.6 kg in body weight) were used, which were housed two per cage. Blood samples from conscious cynomolgus monkeys were taken by puncturing a superficial vein. In a 5-day, repeat-dose study of plasma EPO response, BAY 85-3934 was administered at doses of 0.5 mg/kg and 1.5 mg/kg at 0 h, 24 h, 48 h, 72 h, and 96 h. Blood samples were taken at 7 h, 31 h, 55 h, 79 h, 103 h, and 168 h. Erythropoietic parameters were also evaluated after a 2-week treatment period with s.c. administration of rhEPO (100 IU/kg twice weekly at days 1, 4, 8, and 11) and BAY 85-3934 (1.5 mg/kg) once daily.
EPO was measured in plasma samples taken from rodents using a commercial ELISA kit (R&D Systems), according to the manufacturer’s instructions. Relative plasma EPO levels were given in picograms per milliliter. In cynomolgus monkeys, EPO was measured using a combination anti-human EPO ELISAs (R&D Systems and Roche Diagnostics), with human EPO as a standard. Values were given as units per liter. For determination of plasma prorenin from rats, a commercial ELISA (Oxford Biomedical Research) was used according to the manufacturer’s instructions. Hemoglobin in rodent blood samples was determined on a Cell-Dyn 3700 apparatus (Abbott Diagnostics). BAY 85-3934 plasma concentrations were determined after protein precipitation with acetonitrile/ammonium acetate using an internal standard, followed by separation using HPLC/mass spectrometry.
A multiple-dose study in cynomolgus monkeys was conducted to evaluate whether repeat administration of BAY 85-3934 would result in EPO accumulation and/or adaptation of the EPO response. […] In all groups, EPO concentrations had returned to baseline concentrations 24 h after administration of the study drug. […] Platelet and white blood cell counts were unchanged. With respect to EPO induction, the 0.5 mg/kg dose was determined as the minimal effective dose in this study, although statistical significance versus control animals was not reached in this small and heterogeneous animal cohort.

[1] = tested on: broad panel of radio-ligand binding assays; test: Broad panel of radio-ligand binding assays (n = 67); details: 10 µM, n = 67 assays, data not shown
Description: The selectivity of BAY 85-3934 was examined via a broad panel of radio-ligand binding assays (n = 67), and by examining the activity of BAY 85-3934 against related enzymes (matrix metalloproteinases and other peptidases, n = 8). At a concentration of 10 µM, no significant (> 50%) activity in any of these assays was detected (data not shown).

O=c1c(-n2ccnn2)c[nH]n1-c1cc(N2CCOCC2)ncn1 [BAY 85-3934, 2-[6-(morpholin-4-yl)pyrimidin-4-yl]-4-(1H-1,2,3-triazol-1-yl)-1,2-dihydro-3H-pyrazol-3-one]
pIC50 (PHD3): 6.35 | pIC50 (PHD1): 6.32 | plasma EPO 7 h after administration (cynomolgus monkeys; 1.5 mg/kg oral, all animals): significantly induced | time after administration at which EPO had returned to baseline (cynomolgus monkeys; 0.5 and 1.5 mg/kg, all groups): 24 h | adaptation of the EPO response after repeated dosing (cynomolgus monkeys; once daily for 5 days): no adaptation | platelet and white blood cell counts (cynomolgus monkeys; once daily for 5 days): unchanged | minimal effective dose for EPO induction (cynomolgus monkeys; statistical significance versus control not reached): 0.5 mg/kg | activity in radio-ligand binding assays [1]: ≤ 50%
